The subject of the test is T cells in the peripheral blood. Kind of test: ELISPOT assay (IFN-γ / IL-4) on patients' peripheral blood T cells before/after dendritic cell immunotherapy. It is filed as cell-based, human. As to the method: As described above, dendritic cells activate CTL to attack target cells to treat a disease. Accordingly, dendritic cells activated by peptides including PEP1 were prepared, administered to each individual, and subjected to an ELISPOT assay to observe an increase in T cell responses to each peptide in each individual.
The experiments were performed on four patients with different diseases (cancers), and a dendritic cell immunotherapy method is as follows. Mononuclear cells were collected from peripheral blood extracted from each patient and cultured. Immature dendritic cells differentiated in the mononuclear cell culture were subjected to antigen activation with tumor-associated antigen peptides including PEP1. When the dendritic cells became mature, antigen activation was carried out once more with the same peptides. The activated mature dendritic cells were separated and then administered to each patient.
More specifically, dendritic cells and NK cells used in treatment were prepared by proliferating mononuclear cells obtained from 25 ml of whole blood taken from a patient every two weeks, and differentiating the proliferated mononuclear cells into dendritic cells. That is, in this example, CD14+ mononuclear cells obtained from a peripheral blood vessel of the patient were cultured with IL-4 and GM-CFS for 6 days and proliferated, and then treated with a Streptococcus agent OK-432 for maturation. In addition, in the preparation of the dendritic cells, the dendritic cells were activated by WT1, MUC1 and other antigens.
According to cancer characteristics of a patient undergoing a gene test, an antigen test and a tumor marker test, a substance having a similar function to a tumor-associated antigen (a cancer cell lysate, tumor-specific protein, or tumor-associated peptide) was added to the dendritic cells to enhance a cancer-recognizing ability of the dendritic cells, which is an activation process. For dendritic cell activation, as tumor-associated antigens that can be used in the present invention but not limited thereto, WT1, MUC-1, CA125, MAGE-A3, CEA, NY-ESO1, survinin, Her2, and the telomerase-derived peptide PEP1 were used. As an activation method but not limited to a specific example, the dendritic cells may be cultured with such a tumor-associated antigen. The activation may be performed on immature dendritic cells or mature dendritic cells. In one specific example of the present invention, mononuclear cells were collected from a patient's peripheral blood and cultured, immature dendritic cells differentiated from the mononuclear cells were treated with a peptide to activate and thus differentiated into mature dendritic cells, and then the mature dendritic cells were treated with the same peptide for activation. An amount of the antigen used in the activation may be the same as generally used in the art as follows but is not limited thereto. For example, PEP1 may be used in an amount of 1 to 1000 μg/ml along with the antigens, and 20 μg/ml of WT1, 20 μg/ml of MUC1, 20 μg/ml of CEA, 500 μg/ml of CA125, and 20 μg/ml of HER2 may be used. The dendritic cells (1×10^7) prepared as described above were intradermally injected six times every 14 days.
The following experiment was performed to examine whether dendritic cell immunotherapy leads to an increase in T cell responses to peptides activated by an antigen. A buffy coat layer was separated from the peripheral blood of a patient subjected to the dendritic cell immunotherapy using a ficoll method (centrifugation using a ficoll), and mononuclear cells were obtained therefrom. Following 3 to 4-day culture, an ELISPOT assay was carried out. The ELISPOT assay was performed according to a protocol of an ImmunoSpot kit (Celluluar Technology Limited, USA). […] As peptide stimulants (antigen peptides), Peptivator WT1, Peptivator NY-ESO1 (Miltenyi Biotec., Germany), MUC-1, MAGE-A3, Survivin and PEP1 were added to each well at an optimum concentration and cultured for 48 hours. […]

Take “EARPALLTSRLRFIPK (homo sapiens) [PEP1, telomerase-derived peptide composed of 16 amino acids, position [611-626] on telomerase]”: the “Number of spots, IL-4” value turned out to be 335 (Patient 1 (stomach cancer), 7 days after six times of dendritic cell vaccine administration, negative control 17); 2 (Patient 1 (stomach cancer), before dendritic cell vaccine administration, negative control 1); 410 (Patient 2 (lung cancer), 44 days after six times of dendritic cell vaccine administration, negative control 2); 9 (Patient 2 (lung cancer), before dendritic cell vaccine administration, negative control 0); 434 (Patient 3 (pancreatic cancer), 11 days after six times of dendritic cell vaccine administration, negative control 2); 4 (Patient 3 (pancreatic cancer), before dendritic cell vaccine administration, negative control 8). Besides, the “Number of spots, IL-4” value turned out to be 353 (Patient 4 (breast cancer), 35 days after six times of dendritic cell vaccine administration, 2×10^5 cells/well, negative control 20) and 3 (Patient 4 (breast cancer), before dendritic cell vaccine administration, 2×10^5 cells/well, negative control 17). Also, the “Number of spots, IFN-γ” value is listed as 567 (Patient 1 (stomach cancer), 7 days after six times of dendritic cell vaccine administration, negative control 27); 3 (Patient 1 (stomach cancer), before dendritic cell vaccine administration, negative control 5); ~332.5* (Patient 2 (lung cancer), 44 days after six times of dendritic cell vaccine administration, negative control 153, *exact number was not obtained); 0 (Patient 2 (lung cancer), before dendritic cell vaccine administration, negative control 1); 632 (Patient 3 (pancreatic cancer), 11 days after six times of dendritic cell vaccine administration, negative control 14); 1 (Patient 3 (pancreatic cancer), before dendritic cell vaccine administration, negative control 3). For the same sequence, the “Number of spots, IFN-γ” value is on record as 258 (Patient 4 (breast cancer), 35 days after six times of dendritic cell vaccine administration, 2×10^5 cells/well, negative control 12) and 22 (Patient 4 (breast cancer), before dendritic cell vaccine administration, 2×10^5 cells/well, negative control 13). Also, the “ELISPOT spots compared with the negative control” value by setting is: (Patient 1, after the treatment (dendritic cell vaccine six times)) “increased”; (Patient 2, after the treatment (dendritic cell vaccine 6 times)) “increased”; (Patient 3, after the treatment (dendritic cell vaccine 6 times)) “increased”; (Patient 4, after the treatment (dendritic cell vaccine 6 times)) “increased”.
